Measurements published in PubChem BioAssay (NCI).
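48-hour exposure; five concentrations; linearly interpolated endpoints. TGI is the concentration that stops growth completely.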

Key:
Assay in all cases: DTP human tumour cell line panel, 48 h
OVCAR-4 ovarian = tested on: OVCAR-4 ovarian
BT-549 breast = tested on: BT-549 breast
DU-145 prostate = tested on: DU-145 prostate
CAKI-1 renal = tested on: CAKI-1 renal
MDA-MB-435 = tested on: MDA-MB-435
SK-MEL-28 melanoma = tested on: SK-MEL-28 melanoma
MOLT-4 leukemia = tested on: MOLT-4 leukemia
HOP-62 NSCLC = tested on: HOP-62 NSCLC
UACC-62 melanoma = tested on: UACC-62 melanoma
HT29 colon = tested on: HT29 colon
KM12 colon = tested on: KM12 colon
SK-MEL-2 melanoma = tested on: SK-MEL-2 melanoma
RPMI-8226 leukemia = tested on: RPMI-8226 leukemia
SR leukemia = tested on: SR leukemia
ACHN renal = tested on: ACHN renal
CCRF-CEM leukemia = tested on: CCRF-CEM leukemia
SN12C renal = tested on: SN12C renal
COLO 205 colon = tested on: COLO 205 colon
U251 CNS = tested on: U251 CNS
SK-OV-3 ovarian = tested on: SK-OV-3 ovarian
RXF 393 renal = tested on: RXF 393 renal
SK-MEL-5 melanoma = tested on: SK-MEL-5 melanoma
OVCAR-3 ovarian = tested on: OVCAR-3 ovarian
PC-3 prostate = tested on: PC-3 prostate
M14 melanoma = tested on: M14 melanoma
HCT-116 colon = tested on: HCT-116 colon
MCF7 breast = tested on: MCF7 breast
HCT-15 colon = tested on: HCT-15 colon
SF-295 CNS = tested on: SF-295 CNS
SF-268 CNS = tested on: SF-268 CNS
UO-31 renal = tested on: UO-31 renal
EKVX NSCLC = tested on: EKVX NSCLC
NCI-H226 lung = tested on: NCI-H226 lung
A549 NSCLC = tested on: A549 NSCLC
SNB-19 CNS = tested on: SNB-19 CNS
TK-10 renal = tested on: TK-10 renal
MDA-N = tested on: MDA-N
A498 renal = tested on: A498 renal
MALME-3M melanoma = tested on: MALME-3M melanoma
OVCAR-8 ovarian = tested on: OVCAR-8 ovarian
LOX IMVI melanoma = tested on: LOX IMVI melanoma
SW-620 colon = tested on: SW-620 colon
HCC-2998 colon = tested on: HCC-2998 colon
HS 578T breast = tested on: HS 578T breast
NCI/ADR-RES ovarian = tested on: NCI/ADR-RES ovarian
786-0 renal = tested on: 786-0 renal
K-562 leukemia = tested on: K-562 leukemia
SF-539 CNS = tested on: SF-539 CNS
NCI-H522 lung = tested on: NCI-H522 lung
NCI-H23 lung = tested on: NCI-H23 lung
OVCAR-5 ovarian = tested on: OVCAR-5 ovarian
T-47D breast = tested on: T-47D breast
HL-60(TB) leukemia = tested on: HL-60(TB) leukemia
UACC-257 melanoma = tested on: UACC-257 melanoma
IGROV1 ovarian = tested on: IGROV1 ovarian
NCI-H460 lung = tested on: NCI-H460 lung
HOP-92 NSCLC = tested on: HOP-92 NSCLC
SNB-75 CNS = tested on: SNB-75 CNS
MDA-MB-231 breast = tested on: MDA-MB-231 breast

## C[n+]1ccccc1/C1=c2\cc/c([nH]2)=C(\c2cccc[n+]2C)C2=N/C(=C(/c3cccc[n+]3C)C3C=CC(N3)/C(c3cccc[n+]3C)=C3/C=CC1=N3)C=C2
OVCAR-4 ovarian
  TGI: > 100 µM
BT-549 breast
  TGI: > 100 µM
DU-145 prostate
  TGI: > 100 µM
CAKI-1 renal
  TGI: > 100 µM
MDA-MB-435
  TGI: > 100 µM
SK-MEL-28 melanoma
  TGI: > 100 µM
MOLT-4 leukemia
  TGI: > 100 µM
HOP-62 NSCLC
  TGI: > 100 µM
UACC-62 melanoma
  TGI: > 100 µM
HT29 colon
  TGI: > 100 µM
KM12 colon
  TGI: > 100 µM
SK-MEL-2 melanoma
  TGI: > 100 µM
RPMI-8226 leukemia
  TGI: > 100 µM
SR leukemia
  TGI: > 100 µM
ACHN renal
  TGI: > 100 µM
CCRF-CEM leukemia
  TGI: > 100 µM
SN12C renal
  TGI: > 100 µM
COLO 205 colon
  TGI: > 100 µM
U251 CNS
  TGI: > 100 µM
SK-OV-3 ovarian
  TGI: > 100 µM
RXF 393 renal
  TGI: > 100 µM
SK-MEL-5 melanoma
  TGI: > 100 µM
OVCAR-3 ovarian
  TGI: > 100 µM
PC-3 prostate
  TGI: > 100 µM
M14 melanoma
  TGI: > 100 µM
HCT-116 colon
  TGI: > 100 µM
MCF7 breast
  TGI: > 100 µM
HCT-15 colon
  TGI: > 100 µM
SF-295 CNS
  TGI: > 100 µM
SF-268 CNS
  TGI: > 100 µM
UO-31 renal
  TGI: > 100 µM
EKVX NSCLC
  TGI: > 100 µM
NCI-H226 lung
  TGI: > 100 µM
A549 NSCLC
  TGI: > 100 µM
SNB-19 CNS
  TGI: > 100 µM
TK-10 renal
  TGI: > 100 µM
MDA-N
  TGI: > 100 µM
A498 renal
  TGI: > 100 µM
MALME-3M melanoma
  TGI: > 100 µM
OVCAR-8 ovarian
  TGI: > 100 µM
LOX IMVI melanoma
  TGI: > 100 µM
SW-620 colon
  TGI: > 100 µM
HCC-2998 colon
  TGI: > 100 µM
HS 578T breast
  TGI: > 100 µM
NCI/ADR-RES ovarian
  TGI: > 100 µM
786-0 renal
  TGI: > 100 µM
K-562 leukemia
  TGI: > 100 µM
SF-539 CNS
  TGI: > 100 µM
NCI-H522 lung
  TGI: > 100 µM
NCI-H23 lung
  TGI: > 100 µM
OVCAR-5 ovarian
  TGI: > 100 µM
T-47D breast
  TGI: > 100 µM
HL-60(TB) leukemia
  TGI: > 100 µM
UACC-257 melanoma
  TGI: > 100 µM
IGROV1 ovarian
  TGI: > 100 µM
NCI-H460 lung
  TGI: > 100 µM
HOP-92 NSCLC
  TGI: > 100 µM

## C/C(=N\NC(N)=S)c1sc(-n2nc(-c3ccccc3)cc2-c2ccccc2)nc1C
OVCAR-4 ovarian
  TGI: > 100 µM
BT-549 breast
  TGI: > 100 µM
DU-145 prostate
  TGI: > 100 µM
CAKI-1 renal
  TGI: > 100 µM
MDA-MB-435
  TGI: > 100 µM
SK-MEL-28 melanoma
  TGI: > 100 µM
MOLT-4 leukemia
  TGI: > 100 µM
HOP-62 NSCLC
  TGI: > 100 µM
UACC-62 melanoma
  TGI: > 100 µM
HT29 colon
  TGI: > 100 µM
KM12 colon
  TGI: > 100 µM
SK-MEL-2 melanoma
  TGI: > 100 µM
RPMI-8226 leukemia
  TGI: 61.2 µM
SR leukemia
  TGI: > 100 µM
ACHN renal
  TGI: > 100 µM
CCRF-CEM leukemia
  TGI: > 100 µM
SN12C renal
  TGI: > 100 µM
COLO 205 colon
  TGI: > 100 µM
U251 CNS
  TGI: > 100 µM
SK-OV-3 ovarian
  TGI: > 100 µM
RXF 393 renal
  TGI: > 100 µM
SK-MEL-5 melanoma
  TGI: > 100 µM
OVCAR-3 ovarian
  TGI: > 100 µM
SNB-75 CNS
  TGI: > 100 µM
PC-3 prostate
  TGI: > 100 µM
M14 melanoma
  TGI: > 100 µM
HCT-116 colon
  TGI: > 100 µM
MCF7 breast
  TGI: > 100 µM
HCT-15 colon
  TGI: > 100 µM
SF-295 CNS
  TGI: > 100 µM
SF-268 CNS
  TGI: > 100 µM
UO-31 renal
  TGI: > 100 µM
EKVX NSCLC
  TGI: > 100 µM
NCI-H226 lung
  TGI: > 100 µM
A549 NSCLC
  TGI: > 100 µM
SNB-19 CNS
  TGI: > 100 µM
TK-10 renal
  TGI: > 100 µM
MDA-N
  TGI: > 100 µM
A498 renal
  TGI: > 100 µM
MALME-3M melanoma
  TGI: > 100 µM
OVCAR-8 ovarian
  TGI: > 100 µM
LOX IMVI melanoma
  TGI: > 100 µM
SW-620 colon
  TGI: > 100 µM
HCC-2998 colon
  TGI: > 100 µM
HS 578T breast
  TGI: > 100 µM
NCI/ADR-RES ovarian
  TGI: > 100 µM
786-0 renal
  TGI: > 100 µM
SF-539 CNS
  TGI: > 100 µM
MDA-MB-231 breast
  TGI: > 100 µM
NCI-H522 lung
  TGI: > 100 µM
NCI-H23 lung
  TGI: > 100 µM
OVCAR-5 ovarian
  TGI: > 100 µM
T-47D breast
  TGI: > 100 µM
HL-60(TB) leukemia
  TGI: > 100 µM
UACC-257 melanoma
  TGI: > 100 µM
IGROV1 ovarian
  TGI: > 100 µM
NCI-H460 lung
  TGI: > 100 µM
HOP-92 NSCLC
  TGI: > 100 µM

## O=C1NC(=Nc2ccccc2Cl)N/C1=C\c1ccc(Cl)cc1Cl
OVCAR-4 ovarian
  TGI: > 100 µM
BT-549 breast
  TGI: > 100 µM
DU-145 prostate
  TGI: > 100 µM
CAKI-1 renal
  TGI: > 100 µM
MDA-MB-435
  TGI: > 100 µM
SK-MEL-28 melanoma
  TGI: > 100 µM
MOLT-4 leukemia
  TGI: > 100 µM
HOP-62 NSCLC
  TGI: > 100 µM
UACC-62 melanoma
  TGI: > 100 µM
HT29 colon
  TGI: > 100 µM
KM12 colon
  TGI: > 100 µM
SK-MEL-2 melanoma
  TGI: 58.4 µM
RPMI-8226 leukemia
  TGI: > 100 µM
SR leukemia
  TGI: > 100 µM
ACHN renal
  TGI: > 100 µM
CCRF-CEM leukemia
  TGI: > 100 µM
SN12C renal
  TGI: 73.6 µM
COLO 205 colon
  TGI: > 100 µM
U251 CNS
  TGI: > 100 µM
SK-OV-3 ovarian
  TGI: > 100 µM
RXF 393 renal
  TGI: 40.1 µM
SK-MEL-5 melanoma
  TGI: > 100 µM
OVCAR-3 ovarian
  TGI: > 100 µM
SNB-75 CNS
  TGI: 93 µM
PC-3 prostate
  TGI: > 100 µM
M14 melanoma
  TGI: > 100 µM
HCT-116 colon
  TGI: > 100 µM
MCF7 breast
  TGI: > 100 µM
HCT-15 colon
  TGI: > 100 µM
SF-295 CNS
  TGI: > 100 µM
SF-268 CNS
  TGI: > 100 µM
UO-31 renal
  TGI: > 100 µM
EKVX NSCLC
  TGI: > 100 µM
NCI-H226 lung
  TGI: 57.6 µM
A549 NSCLC
  TGI: > 100 µM
SNB-19 CNS
  TGI: > 100 µM
TK-10 renal
  TGI: > 100 µM
MDA-N
  TGI: > 100 µM
A498 renal
  TGI: > 100 µM
MALME-3M melanoma
  TGI: > 100 µM
OVCAR-8 ovarian
  TGI: > 100 µM
LOX IMVI melanoma
  TGI: > 100 µM
SW-620 colon
  TGI: > 100 µM
HCC-2998 colon
  TGI: > 100 µM
HS 578T breast
  TGI: > 100 µM
NCI/ADR-RES ovarian
  TGI: > 100 µM
786-0 renal
  TGI: > 100 µM
K-562 leukemia
  TGI: > 100 µM
SF-539 CNS
  TGI: > 100 µM
NCI-H522 lung
  TGI: > 100 µM
NCI-H23 lung
  TGI: > 100 µM
OVCAR-5 ovarian
  TGI: > 100 µM
T-47D breast
  TGI: > 100 µM
HL-60(TB) leukemia
  TGI: 1.84 µM
UACC-257 melanoma
  TGI: > 100 µM
IGROV1 ovarian
  TGI: > 100 µM
NCI-H460 lung
  TGI: > 100 µM
HOP-92 NSCLC
  TGI: > 100 µM
